Patent US6899886B2, “Acylacetonitriles, process for preparation thereof and miticides containing the same” (Otsuka Chemical Co., Ltd., priority 2000, dated 2005)

What was measured:
Type in all cases: in vivo
[1] = system: two-spotted spider mites; test: Test Example 3: miticidal test on two-spotted spider mites at low concentration; conditions: 20 ppm emulsifiable concentrate, 2 ml sprayed on leaf with 30 female adults; counted 2 days later
Protocol: (§1) • Test compound A: Compound No. 1 in table 3 (the compound of the invention). • Test compound B: Compound No. 2 in table 3 (the compound of the invention). • Test compound C: Compound No. 10 in table 3 (the compound of the invention). • Test compound D: Intermediate No. II-25 disclosed in table 2 on page 101 of Japanese Unexamined Patent Publication No. 158137/1999. (2) Preparation of Emulsifiable Concentrate
(§2) Emulsifiable concentrates were prepared by adding the test compound, acetone and Sorpol 355 (surfactant) to distilled water. These emulsions were set to contain acetone in the proportion of 5 wt. % and Sorpol 355 in the proportion of 0.01 wt. %. The concentration of the test compound was set at 20 ppm.
2 ml of each emulsifiable concentrate prepared above was sprayed onto a piece of a kidney bean leaf (2×4 cm) with 30 female adults of two-spotted spider mites. After being air-dried, the leaf was placed in a thermostatic chamber having a temperature of 25±1° C. The number of live and dead mites was counted 2 days later. The mortality rate was calculated using the following equation: Mortality rate={1−(survival rate in treated area)/(survival rate in untreated area)}×100

[2] = system: two-spotted spider mites; test: Test Example 4: residual miticidal test on two-spotted spider mites (sprayed kidney bean plant); conditions: 200 ppm, 30 ml sprayed on kidney bean plant, counted 2 days later; for Adjusted mortality rate (%) 3 days after spraying: mites introduced 3 days after spraying; for Adjusted mortality rate (%) 5 days after spraying: mites introduced 5 days after spraying
Protocol: as §1, with “compound E: Compound” for “compound D: Intermediate”, “No. a-683” for “No. II-25”, “table 1-a” for “table 2”, “page 81” for “page 101”, “Emulsifiable Concentration” for “Emulsifiable Concentrate”
as §2, with “200” for “20”
30 ml of each emulsifiable concentrate prepared above was sprayed onto a kidney bean plant (at the stage of true leaf growth) in a 9-cm pot, and air-dried. The pot was placed in a glass greenhouse. Each of the first and second leaves was cut into a piece having a size of 3×5 cm, and 15 female adults of two-spotted spider mite were introduced thereto after 3 and 5 days of the spraying. Those pieces of leaves were placed in a thermostatic chamber having a temperature of 25±1° C. The number of live and dead mites was counted 2 days later. The mortality rate thereof was calculated in the same manner as in test example 3 above.

[3] = system: Apple (fuji); test: Test Example 5: phytotoxicity test on field crops; conditions: 20% wettable powder, degree of dilution 1000, 0.4 liters/m^2, 27 days after spraying
Protocol: (§3) The 20% wettable powders obtained in formulation example 2 were diluted to a predetermined degree and sprayed onto crops in a field in an amount of 0.4 liters/m^2. In a predetermined period after spraying, the development of phytotoxicity was observed by the naked eye. As test compounds, test compounds A, B and C above were used.

[4] = system: Apple (jonagold); test: Test Example 5: phytotoxicity test on field crops; conditions: 20% wettable powder, degree of dilution 1000, 0.4 liters/m^2, 14 days after spraying
Protocol: as §3

[5] = system: Grape (pione); test: Test Example 5: phytotoxicity test on field crops; conditions: 20% wettable powder, degree of dilution 2000, 0.4 liters/m^2, 28 days after spraying
Protocol: as §3

[6] = system: Orange (iyo); test: Test Example 5: phytotoxicity test on field crops; conditions: 20% wettable powder, degree of dilution 1000, 0.4 liters/m^2, 40 days after spraying
Protocol: as §3

[7] = system: Pear (hosui); test: Test Example 5: phytotoxicity test on field crops; conditions: 20% wettable powder, degree of dilution 2000, 0.4 liters/m^2, 21 days after spraying
Protocol: as §3

[8] = system: Tea (yabukita); test: Test Example 5: phytotoxicity test on field crops; conditions: 20% wettable powder, degree of dilution 1000, 0.4 liters/m^2, 21 days after spraying
Protocol: as §3

[9] = system: rice plants, cucumbers, cabbages, spinaches, lettuces, tomatoes, leeks, carrots or kidney bean plants; test: Test Example 6: phytotoxicity test; conditions: 0.2 liters/m^2
Protocol: As test compounds, test compounds A, B and C above were used. The 20% wettable powders prepared in formulation example 2 were diluted 500 and 1,000 times. These diluted wettable powders were sprayed onto rice plants, cucumbers, cabbages, […], lettuces, tomatoes, leeks, carrots or kidney bean plants in an amount of 0.2 liters/m^2. The development of phytotoxicity was examined by the naked eye 7 and 14 days after the spraying. […] Further, 20% wettable powders using test compound B were diluted 50, 100 and 200 times, and sprayed onto cucumbers, cabbages, leeks or carrots in an amount of 0.2 liters/m^2. The development of phytotoxicity was examined by the naked eye 7 and 14 days after spraying.

[10] = system: Eggplant (senryo); test: Test Example 5: phytotoxicity test on field crops; conditions: 20% wettable powder, degree of dilution 1000, 0.4 liters/m^2, 14 days after spraying
Protocol: as §3

[11] = system: Orange (mandarin); test: Test Example 5: phytotoxicity test on field crops; conditions: 20% wettable powder, degree of dilution 1000, 0.4 liters/m^2, 40 days after spraying
Protocol: as §3

[12] = system: Orange (sour orange); test: Test Example 5: phytotoxicity test on field crops; conditions: 20% wettable powder, degree of dilution 400, 0.4 liters/m^2, 40 days after spraying
Protocol: as §3

[13] = system: two-spotted spider mites; test: whole plant or invertebrate; conditions: 48 h; 200 ppm sprayed onto kidney bean leaves; after 2 days; read-out: mortality rate of the two-spotted spider mites
Description: A piece of non-woven fabric (4.5×5.5 cm) was suspended inside a plastic cup through an incision made in the lid of the plastic cup. After water was poured into the cup, the cup was covered with the lid. A kidney bean leaf (about 3.5×4.5 cm) was then placed on the sufficiently soaked, non-woven fabric. Another kidney bean leaf with two-spotted spider mites (about 30 mite samples) was placed on top of the first leaf, and the fabric and leaves were placed in a thermostatic chamber having a temperature of 25±2° C. and a humidity of 40%.
Miticidal formulations containing the compound of the invention (200 ppm) were prepared by adding an aqueous solution (100 ppm) of Sorpol 355 (manufactured by Toho Kagaku Co., Ltd.) to a methanol solution of the compound of the invention.
These miticidal formulations were sprayed onto the leaves, and the leaves were air-dried and placed in a thermostatic chamber (25±2° C., humidity 50%). The mortality rate of the two-spotted spider mites was calculated after 2 days.

[14] = 20% wettable powders diluted 500 and 1,000 times, nine plant kinds, 7 and 14 days after the spraying

| Compound | mortality rate [1] | Adjusted mortality rate (%) 3 days after spraying [2] | Adjusted mortality rate (%) 5 days after spraying [2] | Phytotoxicity [3] | Phytotoxicity [4] | Phytotoxicity [5] | Phytotoxicity [6] | Phytotoxicity [7] | Phytotoxicity [8] | development of phytotoxicity [9, 14] | Phytotoxicity [10] | Phytotoxicity [11] | Phytotoxicity [12] | development of phytotoxicity ([9]; 20% wettable powders diluted 50, 100 and 200 times, cucumbers, cabbages, leeks or carrots, 7 and 14 days after spraying) | mortality at 200 ppm [13] |
| --- | --- | --- | --- | --- | --- | --- | --- | --- | --- | --- | --- | --- | --- | --- | --- |
| COC(=O)C(C#N)(C(=O)c1ccccc1C(F)(F)F)c1ccc(C(C)(C)C)cc1 (racemic) [Compound No. 1] | 100% | 100% | 95% | None | None | None | None | None | None | no development of phytotoxicity was observed |  |  |  |  |  |
| CCOC(=O)C(C#N)(C(=O)c1ccccc1C(F)(F)F)c1ccc(C(C)(C)C)cc1 (racemic) [Compound No. 2] | 100% | 100% | 93% | None | None | None | None | None | None | no development of phytotoxicity was observed | None | None | None | no development of phytotoxicity was observed |  |
| COCCOC(=O)C(C#N)(C(=O)c1ccccc1C(F)(F)F)c1ccc(C(C)(C)C)cc1 (racemic) [Compound No. 10] | 100% | 100% | 100% | None | None | None | None | None | None | no development of phytotoxicity was observed |  |  |  |  |  |
| COC(=O)C(C#N)(C(=O)c1ccccc1C(F)(F)F)c1ccc(Cl)cc1 (centres unmarked) [Compound No. 30, Methyl 2-(4-Chlorophenyl)-2-(2-Trifluoromethylbenzoyl)Cyanoacetate] |  |  |  |  |  |  |  |  |  |  |  |  |  |  | ≥ 50% |
